Test results published in PMC3298710, “^111In-BnDTPA-F3: an Auger electron-emitting radiotherapeutic agent that targets nucleolin” (EJNMMI Research, 2012).

Tested on: 231-H2N cells
Test: Clonogenic survival
Type: cell-based, human
Conditions: 24 h, amount equivalent to 2 μM 111In-BnDTPA-F3 at highest specific activity, from 100 ± 5%
Protocol: […] After incubation at 37°C for 24 h, 2 × 10^3 cells were seeded per well in a 6-well plate, and 2 mL of fresh growth medium was added. After 7 to 14 days, cell colonies were stained with methylene blue (2% methylene blue in water/methanol 1:1) and counted. Combination indices (CI) of ^111In with BnDTPA-F3 were determined as described by Edelman et al.. A CI < 0.9 indicates superadditivity.

[Cl][111In]([Cl])[Cl] [111In chloride]
clonogenic survival, equivalent amount of 111In chloride: 46 ± 4%
